Test results taken from US20080138390A1, “Transdermal Delivery System For Use With Basic Permeation Enhancers” (priority 2004, published 2008).

Experiments:
[1] = In vitro skin permeation of diclofenac sodium from transdermal systems, Franz diffusion cells; type: in vitro ADME, human; details: for cumulative amount of diclofenac that permeated through the skin: human cadaver skin, 32° C., 24-hour study
[2] = In vitro skin permeation of testosterone from transdermal systems, Franz diffusion cells; details: for cumulative amount of testosterone that permeated through the skin: human cadaver skin, receiver 30% NMP
Procedure: An in vitro skin permeation study was conducted using two testosterone transdermal delivery systems.
The backing/active agent-in-adhesive film was then pressed onto the skin with the adhesive side facing the stratum corneum. […] Three diffusion cells were used for each formulation. The receiver solution was 30% N-methyl pyrrolidone (NMP) in 70% DI H2O (v/v). The entire receiver solution was collected and replaced with fresh 30% NMP solution at each time point. The receiver solution collected was analyzed by HPLC to determine the concentration of testosterone. The cumulative amount of testosterone that permeated across the human cadaver skin was calculated using the measured testosterone concentrations in the receiver solutions, and the results were plotted versus time (FIG. 3).

## O=C(O)Cc1ccccc1Nc1c(Cl)cccc1Cl [diclofenac, diclofenac sodium]
[1]; PVPP powder added (Formulation B by Table 1)
  cumulative amount of diclofenac that permeated through the skin: 2.41 mg/cm^2
[1]; PVPP powder added vs no PVPP powder
  cumulative amount of diclofenac permeated relative to absence of the powder: more than five times
[1]; PVPP powder in combination with polyethylene oxide (Formulation C by Table 1)
  cumulative amount of diclofenac that permeated through the skin: 2.05 mg/cm^2
[1]; no PVPP powder added (Formulation D by Table 1)
  cumulative amount of diclofenac that permeated through the skin: 0.48 mg/cm^2
[1]; powdered starch, poly(acrylamide-acrylic acid) sodium salt instead of PVPP (Formulation A by Table 1)
  cumulative amount of diclofenac that permeated through the skin: 1.03 mg/cm^2

## C[C@]12CC[C@H]3[C@@H](CCC4=CC(=O)CC[C@@]43C)[C@@H]1CC[C@@H]2O [testosterone]
[2]; 0.75 g PVPP powder added (Formulation J by Table 5)
  cumulative amount of testosterone that permeated through the skin: 0.70 mg/cm^2
[2]; 0.75 g PVPP powder vs no PVPP powder
  cumulative amount of testosterone permeated relative to absence of the powder: almost twice
[2]; no PVPP powder added (Formulation I by Table 5)
  cumulative amount of testosterone that permeated through the skin: 0.40 mg/cm^2
